# Experimental data as given in US20040122045A1, “Timing curation of administration of adenosine A1/A2 agonist for cardioprotection” (Aventis Pharmaceuticals Inc., priority 2001, published 2004).
# pKi: −log10 of the molar value. Where two headings read alike, the source gives them in different places.
# Legend:
# rabbit heart = settings: cited from earlier work
# [1] = Hemodynamics (heart rate, mean arterial pressure) during ischemia/reperfusion
# A1 receptor subtype = biological target: T1, A1 receptor subtype (Homo sapiens, UniProt P30542); settings: cited from earlier work
# T1 sequence (P30542 1-326): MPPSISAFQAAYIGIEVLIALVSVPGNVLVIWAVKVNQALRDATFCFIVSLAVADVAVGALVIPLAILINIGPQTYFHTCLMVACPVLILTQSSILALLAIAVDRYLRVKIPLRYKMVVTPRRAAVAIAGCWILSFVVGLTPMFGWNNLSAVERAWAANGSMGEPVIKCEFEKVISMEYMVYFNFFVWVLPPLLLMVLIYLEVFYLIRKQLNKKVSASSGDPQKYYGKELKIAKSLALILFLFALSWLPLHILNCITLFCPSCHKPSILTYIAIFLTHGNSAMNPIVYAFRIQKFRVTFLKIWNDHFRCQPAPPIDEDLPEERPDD
# chick cardiomyocytes = settings: cited from earlier work
# A2a receptor subtype = A2a receptor subtype (Homo sapiens, UniProt P29274); settings: cited from earlier work
# rabbit hearts = settings: cited from earlier work
# in situ rabbit hearts = test: Infarct size after 30 min regional ischemia/3 h reperfusion, in situ rabbit hearts; type: in vivo, New Zealand White rabbits; settings: for Infarct size, percentage of the risk zone: AMP 579 30 μg/kg iv bolus + 3 μg/kg/min; for Protection against infarction: Adenosine 150, 300 or 400 μg/kg/min; for Infarct size (% of risk zone): starting 10 minutes before reperfusion
# Protocol: Body temperature was maintained at 38-39° C. […] Ischemia was confirmed by appearance of cyanosis.
# After 3 h of reperfusion, the rabbit was given an overdose of pentobarbital and the heart was quickly removed from the chest, mounted on a Langendorff apparatus, and perfused with saline to wash out blood. Then the coronary artery was reoccluded, and 5 ml of 0.1% zinc/cadmium sulfide particles (1-10 μm diameter, Duke Scientific Corp, Palo Alto, Calif.) were infused into the perfusate to demarcate the risk zone as the area of tissue without fluorescence. The heart was weighed, frozen, and cut into 2.5-mm-thick slices. The slices were incubated in 1% triphenyltetrazolium chloride (TTC) in sodium phosphate buffer at 37° C. for 20 min. The slices were immersed in 10% formalin to enhance the contrast between stained (viable) and unstained (necrotic) tissue and then squeezed between glass plates spaced exactly 2 mm apart. The myocardium at risk was identified by illuminating the slices with ultraviolet light. The infarcted and risk zone areas were traced on a clear acetate sheet and quantified with planimetry by an investigator blinded to the treatment. The areas were converted into volumes by multiplying the areas by slice thickness. Infarct size is expressed as a percentage of the risk zone.
# The control group received no drug treatment.
# [2] = AMP (30 min): 30 μg/kg iv bolus + 3 μg/kg/min, started 10 min before reperfusion, 30 min, Baseline
# [3] = AMP (30 min): started 10 min before reperfusion, 30 min, Ischemia (end of 30 min)
# [4] = AMP (30 min): started 10 min before reperfusion, 30 min, Rep 30′
# [5] = AMP (30 min): started 10 min before reperfusion, 30 min, Rep 90′
# [6] = AMP (30 min): started 10 min before reperfusion, 30 min, Rep 180′
# [7] = AMP (40 min): 30 μg/kg iv bolus + 3 μg/kg/min, started 10 min before reperfusion, 40 min, Baseline
# [8] = AMP (40 min): started 10 min before reperfusion, 40 min, Ischemia (end of 30 min)
# [9] = AMP (40 min): started 10 min before reperfusion, 40 min, Rep 30′
# [10] = AMP (40 min): started 10 min before reperfusion, 40 min, Rep 90′
# [11] = AMP (40 min): started 10 min before reperfusion, 40 min, Rep 180′
# [12] = AMP (70 min, late): 30 μg/kg iv bolus + 3 μg/kg/min, started 10 min after reperfusion, 70 min, Baseline
# [13] = AMP (70 min, late): started 10 min after reperfusion, 70 min, Ischemia (end of 30 min)
# [14] = AMP (70 min, late): started 10 min after reperfusion, 70 min, Rep 30′
# [15] = AMP (70 min, late): started 10 min after reperfusion, 70 min, Rep 90′
# [16] = AMP (70 min, late): started 10 min after reperfusion, 70 min, Rep 180′
# [17] = AMP (70 min, onset): 30 μg/kg iv bolus + 3 μg/kg/min, started at onset of reperfusion, 70 min, Baseline
# [18] = AMP (70 min, onset): started at onset of reperfusion, 70 min, Ischemia (end of 30 min)
# [19] = AMP (70 min, onset): started at onset of reperfusion, 70 min, Rep 30′
# [20] = AMP (70 min, onset): started at onset of reperfusion, 70 min, Rep 90′
# [21] = AMP (70 min, onset): started at onset of reperfusion, 70 min, Rep 180′
# [22] = Adenosine 150 μg/kg/min iv, 70 min starting 10 min before reperfusion
# [23] = Adenosine 300 μg/kg/min iv, 70 min starting 10 min before reperfusion
# [24] = Adenosine 400 μg/kg/min iv, 70 min starting 10 min before reperfusion
# Chain of A2a receptor subtype (P29274 whole entry): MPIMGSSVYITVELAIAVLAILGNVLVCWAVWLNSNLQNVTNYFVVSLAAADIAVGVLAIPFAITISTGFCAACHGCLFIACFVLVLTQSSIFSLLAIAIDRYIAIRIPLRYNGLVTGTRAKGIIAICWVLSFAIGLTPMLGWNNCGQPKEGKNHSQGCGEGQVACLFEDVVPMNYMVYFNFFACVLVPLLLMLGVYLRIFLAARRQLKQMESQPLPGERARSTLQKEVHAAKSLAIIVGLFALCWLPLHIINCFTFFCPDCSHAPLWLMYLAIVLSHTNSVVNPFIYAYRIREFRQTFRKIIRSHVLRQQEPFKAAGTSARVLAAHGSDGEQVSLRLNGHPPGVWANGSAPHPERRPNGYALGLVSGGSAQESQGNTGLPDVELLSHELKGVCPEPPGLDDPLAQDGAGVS
structure (smiles),measurement,setting,value
"CCNC(=O)[C@H]1CC(n2cnc3c(N[C@H](CC)Cc4sccc4Cl)ccnc32)[C@H](O)[C@@H]1O (relative stereo) [AMP 579, [1S-[1α,2β,3β,4α(S*)]]-4-[7-[[3-chloro-2-thienyl)methyl]propyl]amino]-3H-imidazo[4,5-b]pyridin-3-yl]-N-ethyl-2,3-dihydroxycyclopentanecarboxamide]",Onset of contracture that accompanies reperfusion,rabbit heart,greatly attenuates the onset of contracture
same,HR,[1]; [2],271 ± 3 beats/min
same,MAP,[1]; [2],91.8 ± 2.8 mmHg
same,HR,[1]; [3],247 ± 5 beats/min
same,MAP,[1]; [3],73.7 ± 3.9 mmHg
same,HR,[1]; [4],241 ± 7 beats/min
same,MAP,[1]; [4],74.8 ± 5.1 mmHg
same,HR,[1]; [5],256 ± 11 beats/min
same,MAP,[1]; [5],77.7 ± 5.7 mmHg
same,HR,[1]; [6],265 ± 6 beats/min
same,MAP,[1]; [6],77.9 ± 5.2 mmHg
same,HR,[1]; [7],271 ± 11 beats/min
same,MAP,[1]; [7],99.3 ± 2.4 mmHg
same,HR,[1]; [8],268 ± 7 beats/min
same,MAP,[1]; [8],76.8 ± 6.6 mmHg
same,HR,[1]; [9],250 ± 14 beats/min
same,MAP,[1]; [9],70.4 ± 8.1 mmHg
same,HR,[1]; [10],268 ± 13 beats/min
same,MAP,[1]; [10],83.5 ± 5.0 mmHg
same,HR,[1]; [11],268 ± 10 beats/min
same,MAP,[1]; [11],81.8 ± 4.5 mmHg
same,HR,[1]; [12],285 ± 3 beats/min
same,MAP,[1]; [12],96.9 ± 2.9 mmHg
same,HR,[1]; [13],281 ± 1 beats/min
same,MAP,[1]; [13],84.6 ± 4.5 mmHg
same,HR,[1]; [14],243 ± 8 beats/min
same,MAP,[1]; [14],57.4 ± 5.6 mmHg
same,HR,[1]; [15],240 ± 6 beats/min
same,MAP,[1]; [15],69.0 ± 4.9 mmHg
same,HR,[1]; [16],259 ± 10 beats/min
same,MAP,[1]; [16],68.1 ± 3.6 mmHg
same,HR,[1]; [17],262 ± 6 beats/min
same,MAP,[1]; [17],98.6 ± 3.2 mmHg
same,HR,[1]; [18],270 ± 9 beats/min
same,MAP,[1]; [18],89.0 ± 3.2 mmHg
same,HR,[1]; [19],233 ± 9 beats/min
same,MAP,[1]; [19],55.6 ± 3.9 mmHg
same,HR,[1]; [20],235 ± 16 beats/min
same,MAP,[1]; [20],70.8 ± 4.5 mmHg
same,HR,[1]; [21],264 ± 10 beats/min
same,MAP,[1]; [21],79.6 ± 3.9 mmHg
same,Hypotensive effect,[1]; infusion commenced before the onset of reperfusion (AMP 30 min and AMP 40 min groups),additional mild hypotensive effect
same,pKi,A1 receptor subtype,8.30
same,Burst of free radicals at reperfusion,chick cardiomyocytes; 1 μM,virtually eliminated it
same,pKi,A2a receptor subtype,7.25
same,Protection against infarction (dose required),rabbit hearts; 3 μg/kg/min,protective
same,"Infarct size, percentage of the risk zone","rabbit hearts; 70-min infusion starting 10 min prior to reperfusion, previous study (Xu et al.)",12.3±1.0%
same,"Infarct size, percentage of the risk zone","in situ rabbit hearts; 70 min, started 10 min after reperfusion",27.6±7.2%
same,"Infarct size, percentage of the risk zone","in situ rabbit hearts; 70 min, started at onset of reperfusion, p<0.05 vs. control",13.0±1.9%
same,"Infarct size, percentage of the risk zone","in situ rabbit hearts; started 10 min before reperfusion, 30 min infusion",30.1±1.4%
same,"Infarct size, percentage of the risk zone","in situ rabbit hearts; started 10 min before reperfusion, 40 min infusion",24.8±5.9%
same,Infarct size,"in situ rabbit hearts; AMP (30 min): 30 μg/kg iv bolus + 3 μg/kg/min, started 10 min before reperfusion, 30 min",0.27 ± 0.05 cm^3
same,Infarct size,"in situ rabbit hearts; AMP (40 min): 30 μg/kg iv bolus + 3 μg/kg/min, started 10 min before reperfusion, 40 min",0.27 ± 0.07 cm^3
same,Infarct size,"in situ rabbit hearts; AMP (70 min, late): 30 μg/kg iv bolus + 3 μg/kg/min, started 10 min after reperfusion, 70 min",0.28 ± 0.07 cm^3
same,Infarct size,"in situ rabbit hearts; AMP (70 min, onset): 30 μg/kg iv bolus + 3 μg/kg/min, started at onset of reperfusion, 70 min, * p<0.05 vs. control",0.14 ± 0.03* cm^3
Nc1ncnc2c1ncn2[C@@H]1O[C@H](CO)[C@@H](O)[C@H]1O [Adenosine],Burst of free radicals at reperfusion,chick cardiomyocytes; 100 μM (a receptor saturating concentration),failed to block the burst of free radicals at reperfusion
same,% infarction of the risk zone,in situ rabbit hearts; [22],32.6 ± 5.8%
same,Infarct size,in situ rabbit hearts; [22],0.36 ± 0.09 cm^3
same,% infarction of the risk zone,in situ rabbit hearts; [23],34.4 ± 9.5%
same,Infarct size,in situ rabbit hearts; [23],0.36 ± 0.11 cm^3
same,% infarction of the risk zone,in situ rabbit hearts; [24],29.2 ± 8.0%
same,Infarct size,in situ rabbit hearts; [24],0.30 ± 0.08 cm^3
same,Protection against infarction,in situ rabbit hearts; 70 min starting 10 min before reperfusion,No protection was seen
same,Protection against infarction,"in situ rabbit hearts; 70 min starting 10 min before reperfusion, listed as adenosine",none of the doses was protective
same,Infarct size (% of risk zone),in situ rabbit hearts; Infusion rate 300 ug/kg/min,34.4 ± 9.5%
same,Infarct size (% of risk zone),in situ rabbit hearts; Infusion rate 400 ug/kg/min,29.2 ± 8.0%
